In publication PMC8717171 (Saudi Journal of Biological Sciences, 2021):
In brackets after ≈: the same amount, converted by molar mass. Several values for one entry are separate records, joined by “and”; a condition that tells them apart may be missing. Equal values may be shown once. Read-outs that look alike come from different tables or passages of the source.

What was measured:
[1] = Antioxidant activity, DPPH free radical scavenging; format: biochemical; conditions: absorbance at 517 nm
[2] = test system: non-enzymatic lipid peroxidation in rat brain homogenate; assay: In-vitro lipid peroxidation inhibition; conditions: Fe2+-ascorbate
mice = assay: Peripheral anti-nociception, acetic acid-induced writhing; format: in vivo, Mus musculus; conditions: for Number of Writhing (Mean ± SEM): counted for 15 min, n = 5
rat hind paw oedema = assay: Anti-inflammatory activity, carrageenan-induced rat hind paw oedema; format: in vivo, Sprague Dawley rat; conditions: test compounds 100 mg/kg; for Mean paw edema (volume in ml) ± SEM: n = 5
microbial strains = assay: Antimicrobial disc diffusion, all test strains together; format: cell-based
acetylcholinesterase = biological target: T1, acetylcholinesterase (Rattus norvegicus, UniProt P37136); assay: In-vitro anti-acetylcholinesterase activity; format: biochemical
T1 sequence (P37136 32-614): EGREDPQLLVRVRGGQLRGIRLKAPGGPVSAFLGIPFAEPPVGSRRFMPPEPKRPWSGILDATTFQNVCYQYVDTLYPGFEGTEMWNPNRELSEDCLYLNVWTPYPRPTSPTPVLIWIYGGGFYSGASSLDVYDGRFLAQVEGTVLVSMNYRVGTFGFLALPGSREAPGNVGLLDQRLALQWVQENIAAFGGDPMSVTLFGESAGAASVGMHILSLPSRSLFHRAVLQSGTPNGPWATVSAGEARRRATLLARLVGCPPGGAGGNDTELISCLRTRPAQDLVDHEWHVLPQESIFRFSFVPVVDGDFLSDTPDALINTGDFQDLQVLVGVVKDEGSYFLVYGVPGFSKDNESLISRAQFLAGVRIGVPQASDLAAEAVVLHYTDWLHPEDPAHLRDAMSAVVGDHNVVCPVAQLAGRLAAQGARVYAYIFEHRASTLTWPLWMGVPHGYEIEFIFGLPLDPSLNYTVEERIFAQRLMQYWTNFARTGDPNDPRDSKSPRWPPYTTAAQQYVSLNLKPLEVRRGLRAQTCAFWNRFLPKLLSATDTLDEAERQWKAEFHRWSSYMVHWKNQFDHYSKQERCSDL

butyrylcholinesterase = butyrylcholinesterase (Rattus norvegicus, UniProt Q9JKC1); assay: In-vitro anti-butyrylcholinesterase activity; format: biochemical
Swiss-albino mice = conditions: mouse, in vivo, po; for Reaction time: 25 mg/kg
Bacillus megaterium = assay: Disc diffusion; format: cell-based; conditions: standard Ciprofloxacin 5 µg/disc
Salmonella paratyphi = assay: Disc diffusion; format: cell-based; conditions: standard Ciprofloxacin 5 µg/disc
Aspergillus niger = assay: Disc diffusion; format: cell-based; conditions: standard Ciprofloxacin 5 µg/disc
Vibrio parahaemolyticus = assay: Disc diffusion; format: cell-based; conditions: standard Ciprofloxacin 5 µg/disc
Vibrio mimicus = assay: Disc diffusion; format: cell-based; conditions: standard Ciprofloxacin 5 µg/disc
Escherichia coli = assay: Disc diffusion; format: cell-based; conditions: standard Ciprofloxacin 5 µg/disc
Salmonella typhi = assay: Disc diffusion; format: cell-based; conditions: standard Ciprofloxacin 5 µg/disc
Candida albicans = assay: Disc diffusion; format: cell-based; conditions: standard Ciprofloxacin 5 µg/disc
Bacillus subtilis = assay: Disc diffusion; format: cell-based; conditions: standard Ciprofloxacin 5 µg/disc
Pseudomonas aeruginosa = assay: Disc diffusion; format: cell-based; conditions: standard Ciprofloxacin 5 µg/disc
Staphylococcus aureus = assay: Disc diffusion; format: cell-based; conditions: standard Ciprofloxacin 5 µg/disc
Bacillus cereus = assay: Disc diffusion; format: cell-based; conditions: standard Ciprofloxacin 5 µg/disc
Shigella boydii = assay: Disc diffusion; format: cell-based; conditions: standard Ciprofloxacin 5 µg/disc
Sarcina lutea = assay: Disc diffusion; format: cell-based; conditions: standard Ciprofloxacin 5 µg/disc
Shigella dysenteriae = assay: Disc diffusion; format: cell-based; conditions: standard Ciprofloxacin 5 µg/disc
Saccharomyces cerevisiae = assay: Disc diffusion; format: cell-based; conditions: standard Ciprofloxacin 5 µg/disc

butyrylcholinesterase, sequence (Q9JKC1 24-597): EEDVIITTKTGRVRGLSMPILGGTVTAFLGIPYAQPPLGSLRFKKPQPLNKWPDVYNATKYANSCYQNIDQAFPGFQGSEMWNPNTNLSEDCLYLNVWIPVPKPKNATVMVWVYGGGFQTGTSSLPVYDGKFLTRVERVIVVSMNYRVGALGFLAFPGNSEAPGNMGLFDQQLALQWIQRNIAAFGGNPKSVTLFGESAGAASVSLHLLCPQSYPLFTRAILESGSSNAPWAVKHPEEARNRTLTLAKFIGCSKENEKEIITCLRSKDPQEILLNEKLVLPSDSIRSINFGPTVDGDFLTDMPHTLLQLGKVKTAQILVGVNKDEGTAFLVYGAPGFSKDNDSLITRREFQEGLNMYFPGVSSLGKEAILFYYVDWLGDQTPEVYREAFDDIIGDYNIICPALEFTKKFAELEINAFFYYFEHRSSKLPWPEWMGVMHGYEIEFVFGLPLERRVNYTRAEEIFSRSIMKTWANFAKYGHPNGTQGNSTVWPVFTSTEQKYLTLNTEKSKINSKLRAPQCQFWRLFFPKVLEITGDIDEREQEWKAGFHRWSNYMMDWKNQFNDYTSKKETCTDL

| Compound | IC50 (antioxidant activity, DPPH scavenging) [1] | IC50 (lipid peroxidation inhibition) [2] | % of Inhibition of Writhing (mice; 25 mg/kg) | Number of Writhing (Mean ± SEM) (mice; 25 mg/kg) | % of Inhibition of Writhing (mice; 50 mg/kg) | Number of Writhing (Mean ± SEM) (mice; 50 mg/kg) | % Paw edema inhibition (rat hind paw oedema; 1st hour) | Mean paw edema (volume in ml) ± SEM (rat hind paw oedema; 1st hour) | % Paw edema inhibition (rat hind paw oedema; 2nd hour) | Mean paw edema (volume in ml) ± SEM (rat hind paw oedema; 2nd hour) | % Paw edema inhibition (rat hind paw oedema; 3rd hour) | Mean paw edema (volume in ml) ± SEM (rat hind paw oedema; 3rd hour) | % Paw edema inhibition (rat hind paw oedema; 4th hour) | Mean paw edema (volume in ml) ± SEM (rat hind paw oedema; 4th hour) | antimicrobial activity (in words) (microbial strains) | IC50 (acetylcholinesterase) | other results |
| --- | --- | --- | --- | --- | --- | --- | --- | --- | --- | --- | --- | --- | --- | --- | --- | --- | --- |
| Cc1cc(C(C)(C)C)c(O)c(C(C)(C)C)c1 [BHT, tert-butyl-1-hydroxytoluene, reference compound] | 14.44 µg/mL (≈ 65.5 µM) |  |  |  |  |  |  |  |  |  |  |  |  |  |  |  |  |
| O.Oc1cc(O)c2c(c1)O[C@H](c1ccc(O)c(O)c1)[C@@H](O)C2 [Catechin, reference compound] |  | 59.36 µg/mL |  |  |  |  |  |  |  |  |  |  |  |  |  |  |  |
| Oc1ccc(Cn2c(-c3ccc(O)cc3)nc3ccccc32)cc1 [Compound 3a, 1-(4-hydroxybenzyl)-2-(4-hydroxyphenyl)-1H-benzimidazole] | 16.73 µg/mL (≈ 52.9 µM) | 75.53 µg/mL (≈ 239 µM) | 49.25% | 13.6 ± 0.430 | 29.10% | 19.0 ± 1.649 | 34.75% | 0.768 ± 0.0575 mL | 36.07% | 0.78 ± 0.023 mL | 38.93% | 0.80 ± 0.043 mL | 37.59% | 0.88 ± 0.034 mL | did not show any antimicrobial activity | 231 µM | IC50 (butyrylcholinesterase): 49.1 µM |
| Clc1ccc(Cn2c(-c3ccc(Cl)cc3)nc3ccccc32)cc1 [Compound 3b, 1-(4-chlorobenzyl)-2-(4-chlorophenyl)-1H-benzimidazole] |  |  | 26.87% | 19.6 ± 0.797 | 13.43% | 23.2 ± 0.464 | 38.98% | 0.724 ± 0.057 mL | 40.16% | 0.73 ± 0.029 mL | 41.98% | 0.76 ± 0.048 mL | 44.68% | 0.78 ± 0.056 mL | did not show any antimicrobial activity | 187 µM | IC50 (butyrylcholinesterase): 66.3 µM |
| COc1ccc(Cn2c(-c3ccc(OC)cc3)nc3ccccc32)cc1 [Compound 3c, 1-(4-methoxybenzyl)-2-(4-methoxyphenyl)-1H-benzimidazole] | 634.22 µg/mL (≈ 1840 µM) |  | 54.10% | 12.3 ± 0.831 | 42.54% | 15.4 ± 0.697 | 35.59% | 0.758 ± 0.035 mL | 35.25% | 0.79 ± 0.043 mL | 37.40% | 0.82 ± 0.022 mL | 37.59% | 0.88 ± 0.046 mL | did not show any antimicrobial activity |  | Reaction time (Swiss-albino mice): 9.8 ± 0.86 and 10.2 ± 0.86 and 10.6 ± 0.68 and 11.8 ± 0.66; % Elongation value (Swiss-albino mice; 50 mg/kg): 42.86% and 44.19% and 50% and 44.23% |
| Clc1ccc(-c2nc3ccccc3[nH]2)cc1 [Compound 4, 2-(4-chlorophenyl)-1H-benzimidazole] | 114.18 µg/mL (≈ 499 µM) | 98.55 µg/mL (≈ 431 µM) | 2.99% | 26.0 ± 1.001 | 13.81% | 23.1 ± 0.843 | 28.81% | 0.838 ± 0.051 mL | 27.87% | 0.88 ± 0.027 mL | 29.77% | 0.92 ± 0.017 mL | 36.88% | 0.89 ± 0.033 mL |  |  | Diameter of zone of inhibition (mm) (Bacillus megaterium): 9 mm; peripheral analgesic activity (in words) (mice; 25 mg/kg and 50 mg/kg): did not show any peripheral analgesic activity; Diameter of zone of inhibition (mm) (Salmonella paratyphi): 0 mm; Diameter of zone of inhibition (mm) (Aspergillus niger): 10 mm; Reaction time (Swiss-albino mice): 9.4 ± 0.93 and 8.8 ± 1.24 and 10.6 ± 0.68 and 12.6 ± 0.93; Diameter of zone of inhibition (mm) (Vibrio parahaemolyticus): 7 mm; Diameter of zone of inhibition (mm) (Vibrio mimicus): 0 mm; Diameter of zone of inhibition (mm) (Escherichia coli): 10 mm; Diameter of zone of inhibition (mm) (Salmonella typhi): 9 mm; Diameter of zone of inhibition (mm) (Candida albicans): 0 mm; Diameter of zone of inhibition (mm) (Bacillus subtilis): 9 mm; Diameter of zone of inhibition (mm) (Pseudomonas aeruginosa): 8 mm; Diameter of zone of inhibition (mm) (Staphylococcus aureus): 0 mm; Diameter of zone of inhibition (mm) (Bacillus cereus): 7 mm; Diameter of zone of inhibition (mm) (Shigella boydii): 9 mm; Diameter of zone of inhibition (mm) (Sarcina lutea): 7 mm; Diameter of zone of inhibition (mm) (Shigella dysenteriae): 8 mm; Diameter of zone of inhibition (mm) (Saccharomyces cerevisiae): 9 mm |
| c1ccc(COCc2nc3ccccc3[nH]2)cc1 [Compound 6, 2-((benzyloxy)-methyl)-1H-benzimidazole] | 579.19 µg/mL (≈ 2430 µM) |  | 37.69% | 16.7 ± 0.889 | 55.60% | 11.9 ± 0.458 | 22.88% | 0.906 ± 0.047 mL | 23.77% | 0.93 ± 0.028 mL | 25.19% | 0.98 ± 0.018 mL | 31.91% | 0.96 ± 0.039 mL |  | 124 µM | Diameter of zone of inhibition (mm) (Bacillus megaterium): 7 mm; Diameter of zone of inhibition (mm) (Salmonella paratyphi): 8 mm; Diameter of zone of inhibition (mm) (Aspergillus niger): 0 mm; Diameter of zone of inhibition (mm) (Vibrio parahaemolyticus): 10 mm; Diameter of zone of inhibition (mm) (Vibrio mimicus): 9 mm; Diameter of zone of inhibition (mm) (Escherichia coli): 0 mm; Diameter of zone of inhibition (mm) (Salmonella typhi): 8 mm; Diameter of zone of inhibition (mm) (Candida albicans): 0 mm; Diameter of zone of inhibition (mm) (Bacillus subtilis): 10 mm; Diameter of zone of inhibition (mm) (Pseudomonas aeruginosa): 7 mm; Diameter of zone of inhibition (mm) (Staphylococcus aureus): 7 mm; Diameter of zone of inhibition (mm) (Bacillus cereus): 8 mm; Diameter of zone of inhibition (mm) (Shigella boydii): 7 mm; Diameter of zone of inhibition (mm) (Sarcina lutea): 7 mm; Diameter of zone of inhibition (mm) (Shigella dysenteriae): 0 mm; Diameter of zone of inhibition (mm) (Saccharomyces cerevisiae): 7 mm |
| O=C(O)Cc1ccccc1Nc1c(Cl)cccc1Cl [Diclofenac sodium, diclofenac sodium, reference compound] |  |  |  |  |  |  | 23.73% |  | 31.15% |  | 38.93% |  | 45.39% |  |  |  | % of Inhibition of Writhing (mice; standard diclofenac sodium, dose column 0.1 ml/10 g (method: 25 mg/kg)): 91.79% |
| CN1CC[C@]23c4c5ccc(O)c4O[C@H]2[C@@H](O)C=C[C@H]3[C@H]1C5 [morphine, Morphine, reference compound] |  |  |  |  |  |  |  |  |  |  |  |  |  |  |  |  | % Elongation value (Swiss-albino mice): 48.08% and 82.5% |
